Here are results for 2 compounds from patent US7884199B2, “HCV NS3-NS4 protease resistance mutants” (priority 2003, dated 2011).

“And” between values parts separate entries of the source, which are not always exact repeats. Equal entries are not always repeated. Where two headings read alike, the source gives them in different places.

The test system of test [1] is A156V HCV replicon cells. The test can be described thus: HCV replicon cell assay, 48-hour. In kind it is cell-based, Hepatitis C virus. The settings on record: for IC50: 48-hour assay. The source says: (§1) During the course of generating of the HCV sub-genomic replicon stable cell lines, several different patterns of adaptive mutations were identified. One pattern has three substitutions in the HCV nonstructural proteins, which were introduced into the original pBR322-HCV-Neo plasmid by site-directed mutagenesis to generate the second-generation sub-genomic replicon plasmid, pBR322-HCV-Neo-mADE. When the T7 run-offRNA transcripts from the Sca I-linearized pBR322-HCV-Neo-mADE plasmid were electroporated into Huh7 cells, stable replicon cell colonies were formed at a much higher efficiency than the original Con1 replicon RNA. The resistance mutations identified in this study were introduced into the pBR322-HCV-Neo-mADE replicon plasmid by site-directed mutagenesis. Stable replicon cell lines were generated using the T7 transcripts derived from either wild type pBR322-HCV-Neo-mADE or the ones with the resistance mutations.
(§2) Cells containing hepatitis C virus (HCV) replicon were maintained in DMEM containing 10% fetal bovine serum (FBS), 0.25 mg per ml of G418, with appropriate supplements (media A).
(§3) On day 1, replicon cell monolayer was treated with a trypsin:EDTA mixture, removed, and then media A was diluted into a final concentration of 100,000 cells per ml with. 10,000 cells in 100 ul were plated into each well of a 96-well tissue culture plate, and cultured overnight in a tissue culture incubator at 37° C.
(§4) On day 2, compounds (in 100% DMSO) were serially diluted into DMEM containing 2% FBS, 0.5% DMSO, with appropriate supplements (media B). The final concentration of DMSO was maintained at 0.5% throughout the dilution series.
(§5) Media on the replicon cell monolayer was removed, and then media B containing various concentrations of compounds was added. Media B without any compound was added to other wells as no compound controls.
(§6) Cells were incubated with compound or 0.5% DMSO in media B for 48 hours in a tissue culture incubator at 37° C. At the end of the 48-hour incubation, the media was removed, and the replicon cell monolayer was washed once with PBS and stored at −80° C. prior to RNA extraction.
(§7) Culture plates with treated replicon cell monolayers were thawed, and a fixed amount of another RNA virus, such as Bovine Viral Diarrhea Virus (BVDV) was added to cells in each well. RNA extraction reagents (such as reagents from RNeasy kits) were added to the cells immediately to avoid degradation of RNA. Total RNA was extracted according the instruction of manufacturer with modification to improve extraction efficiency and consistency. Finally, total cellular RNA, including HCV replicon RNA, was eluted and stored at −80° C. until further processing.
(§8) A Taqman real-time RT-PCR quantification assay was set up with two sets of specific primers and probe. One was for HCV and the other was for BVDV. Total RNA extractants from treated HCV replicon cells was added to the PCR reactions for quantification of both HCV and BVDV RNA in the same PCR well. Experimental failure was flagged and rejected based on the level of BVDV RNA in each well. The level of HCV RNA in each well was calculated according to a standard curve run in the same PCR plate. The percentage of inhibition or decrease of HCV RNA level due to compound treatment was calculated using the DMSO or no compound control as 0% of inhibition. The cytotoxicity of the compounds was measured using a mitochondrial enzyme-based cell viability assay, CellTiter 96 AQueous One Solution Cell Proliferation Assay (Promega).
(§9) Table 6 summary: Three HCV sub-genomic replicon stable cell lines, including the wild-type, and two mutants, A156T and A156V, were generated using the T7 RNA runoff transcripts from the corresponding high efficiency Con 1 replicon plasmids.

The subject of test [2] is A156T HCV replicon cells. The test can be described thus: HCV replicon cell assay, 48-hour. In kind it is cell-based, Hepatitis C virus. Particulars: for IC50: 48-hour assay.
Excerpt: as §1, §2, §3, §4, §5, §6, §7, §8, §9

For test [3], the target named is T1, D168V mutant HCV NS3 serine protease domain (Hepatitis C virus genotype 1b, UniProt Q9WMX2, D1194V).
T1 construct: A DNA fragment encoding residues Ala^1-Ser^181 of the HCV NS3 protease (GenBank CAB46913); hexa-histidine (C); made in house; host or cells: E. coli BL21/DE3 pLysS
Kind of test: FRET enzyme assay, Ki. Format: biochemical.

Test [4] relates to series A (VX-950-resistant) replicon cells. The test can be described thus: HCV replicon cell assay, 48-hour. Format: cell-based, Hepatitis C virus. A general note: In antiviral work, replicon cells carry a viral genome segment that copies itself.
In test [5] the test system is D168A HCV replicon cells. The test can be described thus: HCV replicon cell assay, 48-hour. Format: cell-based, Hepatitis C virus. The settings on record: 48-hour assay.
Excerpt: as §1, §2, §3, §4, §5, §6, §7, §8
(§10) Four HCV sub-genomic replicon stable cell lines, including the wild type (wt), and three mutants, A156S, D168V and D168A, were generated using the T7 RNA runoff transcripts from the corresponding high efficiency Con1 replicon plasmids.

Test [6] relates to D168V HCV replicon cells. The test can be described thus: HCV replicon cell assay, 48-hour. The settings on record: read-out: Replicon IC50. In kind it is cell-based, Hepatitis C virus.
Excerpt: as §1, §2, §3, §4, §5, §6, §7, §8, §10

Test [7] has as its system A156S HCV replicon cells. Kind of test: HCV replicon cell assay, 48-hour. Format: cell-based, Hepatitis C virus.
Excerpt: as §1, §2, §3, §4, §5, §6, §7, §8, §10

Test [8] concerns the target T2, A156T mutant HCV NS3 serine protease domain (Hepatitis C virus genotype 1b, UniProt Q9WMX2, A1182T).
T2 construct: A DNA fragment encoding residues Ala^1-Ser^181 of the HCV NS3 protease (GenBank CAB46913); hexa-histidine (C); made in house; host or cells: E. coli
Kind of test: FRET enzyme assay, Ki. In kind it is biochemical.

Test [9] addresses T3, D168A mutant HCV NS3 serine protease domain (Hepatitis C virus genotype 1b, UniProt Q9WMX2, D1194A).
T3 construct: A DNA fragment encoding residues Ala^1-Ser^181 of the HCV NS3 protease (GenBank CAB46913); hexa-histidine (C); made in house; host or cells: E. coli BL21/DE3 pLysS
Kind of test: FRET enzyme assay, Ki. In kind it is biochemical.

Test [10] has as its system series B (BILN 2061-resistant) replicon cells. The test can be described thus: HCV replicon cell assay, 48-hour. Particulars: Hepatitis C virus. Format: cell-based.
For test [11], the target named is wild type HCV NS3 serine protease domain, genotype 1b (Hepatitis C virus genotype 1b, UniProt Q9WMX2). Kind of test: biochemical.
Test [12] deals with T4, A156S mutant HCV NS3 serine protease domain (Hepatitis C virus genotype 1b, UniProt Q9WMX2, A1182S).
T4 construct: A DNA fragment encoding residues Ala^1-Ser^181 of the HCV NS3 protease (GenBank CAB46913); hexa-histidine (C); made in house; host or cells: E. coli BL21/DE3 pLysS
The test can be described thus: FRET enzyme assay, Ki. Format: biochemical.

Test [13] concerns wild type HCV replicon cells (high efficiency Con1 replicon). The test can be described thus: HCV replicon cell assay, 48-hour. In kind it is cell-based, Hepatitis C virus.
Excerpt: as §1, §2
On day 1, replicon cell monolayer was treated with a trypsin:EDTA mixture, removed, and then media A was diluted into a final concentration of 100,000 cells per ml with. […]
as §8, with “One was for HCV and the other was for BVDV.” left out, “Experimental failure was flagged and rejected based on the level of BVDV RNA in each well.” left out, “(Promega). […]” for “(Promega).”

The target in test [14] is T5, A156V mutant HCV NS3 serine protease domain (Hepatitis C virus genotype 1b, UniProt Q9WMX2, A1182V).
T5 construct: A DNA fragment encoding residues Ala^1-Ser^181 of the HCV NS3 protease (GenBank CAB46913); hexa-histidine (C); made in house; host or cells: E. coli
Kind of test: FRET enzyme assay, Ki. In kind it is biochemical.

Test [15] deals with series C (double-resistant) replicon cells. Kind of test: HCV replicon cell assay, 48-hour. Format: cell-based, Hepatitis C virus.
Test [16] has as its system wild-type HCV Con1 sub-genomic replicon cells. The test can be described thus: HCV replicon cell assay, 48-hour. Format: cell-based, Hepatitis C virus. Particulars: 48-hour assay. As to the method: as §2, §3
On day 2, compounds (in 100% DMSO) were serially diluted into DMEM containing 2% FBS, 0.5% DMSO, with appropriate supplements (media B). […]
as §8, with “One was for HCV and the other was for BVDV.” left out, “Experimental failure was flagged and rejected based on the level of BVDV RNA in each well.” left out

The subject of test [17] is series D (double-resistant) replicon cells. Kind of test: HCV replicon cell assay, 48-hour. In kind it is cell-based, Hepatitis C virus.
Where [18] appears, read: series C replicon cells at day 52.

As usually defined, the IC50 is the point on the concentration scale where inhibition reaches its midpoint. Broadly, the Ki is the dissociation constant of the complex between target and ligand, obtained from inhibition or displacement. Turning to `CCC[C@H](NC(=O)C1[C@H]2CCC[C@H]2CN1C(=O)[C@@H](NC(=O)[C@@H](NC(=O)c1cnccn1)C1CCCCC1)C(C)(C)C)C(=O)C(=O)NC1CC1` (stereo partly shown) [VX-950], the “decrease in sensitivity conferred by the mutation” value in test [1] and in [2] was “at least 75 fold” each time. Moreover, the IC50 in test [1] (Hepatitis C virus) was greater than 30 µM; in test [2] (Hepatitis C virus), greater than 30 µM; in [4] (Hepatitis C virus, series A replicon cells at day 56) it was 8.1 to 12 µM; in test [5] (Hepatitis C virus) it was 0.193 µM; in [6] (Hepatitis C virus, 48 h) it was 0.163 µM; in test [7] (Hepatitis C virus), 4.65 µM. In addition, the IC50 was 4.65 µM in test [7] (Hepatitis C virus, 48 h, 48-hour assay, read-out: Replicon IC50); 5.09 µM in [7] (read-out: Replicon IC50, 48-hour assay); roughly 0.3 µM in test [10]; 0.402 µM in test [13] (48-hour assay, HCV RNA level, read-out: Replicon IC50); 0.4 µM in test [13] (Hepatitis C virus, 48 h, 48-hour assay, HCV RNA level, read-out: Replicon IC50); 0.354 µM in [16] (Hepatitis C virus). The “reduction of HCV replicon RNA” value in test [1] (up to 30 μM VX-950) and in [2] (up to 30 μM VX-950) was “No significant reduction” throughout. For the same compound, the Ki is 0.043 µM in test [3]; 9.9 µM in test [8]; 0.15 µM in test [9]; 0.1 µM in test [11]; 2.9 µM in test [12]; 33 µM in test [14]. Also, the “Ki higher than against the wild type protease” value in [12] is 29 fold. The “reduction of HCV RNA” value in test [15] (30 μM VX-950, series C replicon cells at day 52) is on record as no more than 50%; in test [17] (30 μM VX-950, series D replicon cells at day 52), no more than 50%. In addition, the “IC50 higher than against the series B replicon cells” value in [17] (series D replicon cells at day 52) is recorded as “more than 100 fold”.
For the compound BILN 2061 [reference compound], the “decrease in sensitivity conferred by the mutation” value in [1] is listed as “more than 1.400 fold”. Besides, the IC50 in [1] is 5.76 µM; in test [2], 1.09 µM; in test [4] (series A (VX-950-resistant) replicon cells), roughly 0.01 µM; in test [5] it was 1.86 µM; in test [6] (D168V replicon cells, 48-hour assay), 5.09 µM and 4.65 µM; in test [7] (read-out: IC50) it was 0.007 µM. The IC50 in test [13] (read-out: IC50) is 0.004 µM; in test [15] (setting [18]), roughly 3 µM; in test [16] it was 0.001 µM. In test [15] (setting [18]), the “IC50 higher than against the series A replicon cells” value came out at 300 fold.
